Data taken from patent publication US10988477B2 (Merck Patent GmbH, priority 2018, dated 2021).

What was measured:
[1] = target: GCN2 kinase (Homo sapiens, UniProt Q9P2K8); experiment: GCN2 enzyme inhibition assay (Transcreener ADP2 fluorescence polarization); type: biochemical; settings: compounds of Formula II; 280 μM ATP, 4 nM GCN2 kinase
How it was run: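 ADP formation read by Transcreener FP after a 1 h, 25 °C kinase reaction containing 280 μM ATP, 200 μM (RS)7 substrate and 4 nM GCN2, pH 7.5 Tris buffer. Compounds (0–8 μM final) were added 10 min before ATP. Percent inhibition gave IC50 and apparent Ki via tight-binding fit.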

[2] = target: intracellular GCN2 (phosphorylation of the GCN2 substrate eIF2α) (Homo sapiens, UniProt Q9P2K8); experiment: GCN2 cellular inhibition assay (AlphaScreen SureFire P-eIF2α Ser51, borrelidin-treated U2OS cells); type: cell-based; settings: compounds of Formula II; biomarker assay, phosphorylated eIF2α Ser51 in borrelidin-treated U2OS cells
How it was run: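 Read-out: AlphaScreen SureFire phospho-eIF2α (Ser51) signal in U2OS lysates. Cells get 4-fold compound dilutions (top 40 μM final) plus 10 μM borrelidin, 1 h, 37 °C. Percent inhibition is relative to borrelidin-alone controls.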

GCN2 kinase, sequence (Q9P2K8 whole entry): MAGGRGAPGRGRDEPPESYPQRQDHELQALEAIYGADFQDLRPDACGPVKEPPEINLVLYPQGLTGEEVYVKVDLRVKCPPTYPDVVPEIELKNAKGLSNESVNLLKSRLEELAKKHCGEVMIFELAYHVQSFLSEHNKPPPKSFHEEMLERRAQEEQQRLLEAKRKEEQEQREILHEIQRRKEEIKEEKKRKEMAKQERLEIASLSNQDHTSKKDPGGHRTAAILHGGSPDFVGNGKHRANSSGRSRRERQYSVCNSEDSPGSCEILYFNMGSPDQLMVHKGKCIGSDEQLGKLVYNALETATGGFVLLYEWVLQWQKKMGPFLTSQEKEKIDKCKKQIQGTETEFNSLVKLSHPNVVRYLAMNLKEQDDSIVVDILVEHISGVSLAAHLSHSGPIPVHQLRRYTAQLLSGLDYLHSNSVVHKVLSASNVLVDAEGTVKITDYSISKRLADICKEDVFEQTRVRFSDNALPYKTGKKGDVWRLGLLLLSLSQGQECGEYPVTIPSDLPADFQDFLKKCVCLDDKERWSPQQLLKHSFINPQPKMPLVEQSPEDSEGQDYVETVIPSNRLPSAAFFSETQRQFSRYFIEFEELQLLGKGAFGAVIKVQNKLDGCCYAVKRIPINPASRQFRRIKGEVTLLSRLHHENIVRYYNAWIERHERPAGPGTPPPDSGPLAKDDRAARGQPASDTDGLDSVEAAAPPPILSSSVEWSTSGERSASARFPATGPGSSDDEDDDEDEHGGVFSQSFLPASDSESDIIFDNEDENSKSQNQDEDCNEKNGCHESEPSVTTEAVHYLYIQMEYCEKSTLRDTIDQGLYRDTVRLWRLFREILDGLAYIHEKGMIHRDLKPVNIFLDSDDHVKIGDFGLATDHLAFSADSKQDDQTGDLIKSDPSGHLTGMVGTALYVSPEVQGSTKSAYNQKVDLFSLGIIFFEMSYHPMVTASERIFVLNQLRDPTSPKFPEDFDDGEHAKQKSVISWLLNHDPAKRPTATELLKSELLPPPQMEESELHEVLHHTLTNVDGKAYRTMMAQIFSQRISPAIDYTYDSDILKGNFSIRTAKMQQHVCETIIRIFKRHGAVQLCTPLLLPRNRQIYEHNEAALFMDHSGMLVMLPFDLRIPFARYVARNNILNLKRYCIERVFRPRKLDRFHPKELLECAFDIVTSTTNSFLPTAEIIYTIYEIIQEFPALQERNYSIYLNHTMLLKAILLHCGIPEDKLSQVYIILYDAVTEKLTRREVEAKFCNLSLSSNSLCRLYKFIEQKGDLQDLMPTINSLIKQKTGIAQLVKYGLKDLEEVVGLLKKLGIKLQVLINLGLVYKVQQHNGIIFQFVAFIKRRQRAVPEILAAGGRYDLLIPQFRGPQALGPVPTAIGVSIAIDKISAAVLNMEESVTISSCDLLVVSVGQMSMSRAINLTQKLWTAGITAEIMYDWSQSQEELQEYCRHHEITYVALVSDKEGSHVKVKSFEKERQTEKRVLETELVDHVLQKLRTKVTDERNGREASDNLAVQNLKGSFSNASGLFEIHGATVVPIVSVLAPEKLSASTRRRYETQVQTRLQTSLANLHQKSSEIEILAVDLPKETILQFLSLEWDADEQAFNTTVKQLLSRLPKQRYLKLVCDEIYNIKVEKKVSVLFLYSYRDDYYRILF
intracellular GCN2 (phosphorylation of the GCN2 substrate eIF2α), sequence (Q9P2K8 whole entry): as above

Structure (SMILES)	Ki [1] [nM]	IC50 [2] [nM]
OCCC1CN(c2cc(-c3cnc4ccc(C(F)F)nn34)ccn2)CCO1 (stereo not shown) [II-146, 2-(4-(4-(6-(Difluoromethyl)imidazo[1,2-b]pyridazin-3-yl)pyridin-2-yl)morpholin-2-yl)ethanol]	10 to 1000	500 to 5000
FC(F)c1ccc2ncc(-c3ccnc(N4CCOC(c5cn[nH]c5)C4)c3)n2n1 (stereo not shown) [II-147, 4-(4-(6-(Difluoromethyl)imidazo[1,2-b]pyridazin-3-yl)pyridin-2-yl)-2-(1H-pyrazol-4-yl)morpholine]	10 to 1000	< 500
CC1(C)CN(c2cc(-c3cnc4ccc(C(F)F)nn34)ccn2)C[C@H](CNS(C)(=O)=O)O1 [II-148, (R)—N-((4-(4-(6-(Difluoromethyl)imidazo[1,2-b]pyridazin-3-yl)pyridin-2-yl)-6,6-dimethylmorpholin-2-yl)methyl)methanesulfonamide]	< 10	< 500
CS(=O)(=O)NCC1CN(c2cc(-c3cnc4ccc(C(F)F)nn34)ccn2)CCO1 (stereo not shown) [II-149, N-((4-(4-(6-(Difluoromethyl)imidazo[1,2-b]pyridazin-3-yl)pyridin-2-yl)morpholin-2-yl)methyl)methanesulfonamide]	< 10	< 500
CC(=O)N1CCN(c2cccc(-c3cnc4ccc(C(F)F)nn34)c2)CC1 [II-150, 1-(4-(3-(6-(Difluoromethyl)imidazo[1,2-b]pyridazin-3-yl)phenyl)piperazin-1-yl)ethanone]	10 to 1000	500 to 5000
C[S+]([O-])CC1CCCN(c2cc(-c3cnc4ccc(C(F)F)nn34)ccn2)C1 (stereo not shown) [II-151, 6-(Difluoromethyl)-3-(2-(3-((methylsulfinyl)methyl)piperidin-1-yl)pyridin-4-yl)imidazo[1,2-b]pyridazine]	10 to 1000	500 to 5000
CS(=O)(=O)NCC1CN(c2cc(-c3cnc4ccc(C(F)F)nn34)ncn2)CC1O (stereo not shown) [II-152, N-((1-(6-(6-(Difluoromethyl)imidazo[1,2-b]pyridazin-3-yl)pyrimidin-4-yl)-4-hydroxypyrrolidin-3-yl)methyl)methanesulfonamide]	10 to 1000	> 5000
CS(=O)(=O)NCC1CN(c2cc(-c3cnc4ccc(C(F)F)nn34)ccn2)CCC1(F)F (stereo not shown) [II-153, N-[[1-[4-[6-(Difluoromethyl)imidazo[1,2-b]pyridazin-3-yl]-2-pyridyl]-4,4-difluoro-3-piperidyl]methyl]methanesulfonamide]	< 10	< 500
CS(=O)(=O)NC[C@H]1CCCN(c2cc(-c3cnc4ccc(C(F)F)nn34)ccn2)C1 [II-154, (S)—N-((1-(4-(6-(Difluoromethyl)imidazo[1,2-b]pyridazin-3-yl)pyridin-2-yl)piperidin-3-yl)methyl)methanesulfonamide]	< 10	< 500
CS(=O)(=O)NC[C@@H]1CCCN(c2cc(-c3cnc4ccc(C(F)F)nn34)ccn2)C1 [II-155, (R)—N-((1-(4-(6-(Difluoromethyl)imidazo[1,2-b]pyridazin-3-yl)pyridin-2-yl)piperidin-3-yl)methyl)methanesulfonamide]	10 to 1000	500 to 5000
O=C1NCCC12CCCN(c1cc(-c3cnc4ccc(C(F)F)nn34)ccn1)C2 (stereo not shown) [II-156, 7-(4-(6-(Difluoromethyl)imidazo[1,2-b]pyridazin-3-yl)pyridin-2-yl)-2,7-diazaspiro[4.5]decan-1-one]	10 to 1000	500 to 5000
CS(=O)(=O)NCC1CCCN(c2cc(-c3cnc4ccc(C(F)F)nn34)ccn2)C1 (stereo not shown) [II-157, N-((1-(4-(6-(Difluoromethyl)imidazo[1,2-b]pyridazin-3-yl)pyridin-2-yl)piperidin-3-yl)methyl)methanesulfonamide]	< 10	< 500
CS(=O)(=O)NCC1(O)CCCN(c2cc(-c3cnc4ccc(C(F)F)nn34)ncn2)C1 (stereo not shown) [II-158, N-((1-(6-(6-(Difluoromethyl)imidazo[1,2-b]pyridazin-3-yl)pyrimidin-4-yl)-3-hydroxypiperidin-3-yl)methyl)methanesulfonamide]	10 to 1000	500 to 5000
CC(NS(C)(=O)=O)C1CN(c2cc(-c3cnc4ccc(C(F)F)nn34)ncn2)CCO1 (stereo not shown) [II-159, N-(1-(4-(6-(6-(Difluoromethyl)imidazo[1,2-b]pyridazin-3-yl)pyrimidin-4-yl)morpholin-2-yl)ethyl)methanesulfonamide]	10 to 1000	500 to 5000
O=C1CN(c2cc(-c3cnc4ccc(C(F)F)nn34)ccn2)CC2(CC2)N1 [II-160, 7-(4-(6-(Difluoromethyl)imidazo[1,2-b]pyridazin-3-yl)pyridin-2-yl)-4,7-diazaspiro[2.5]octan-5-one]	10 to 1000	500 to 5000
FC(F)c1ccc2ncc(-c3ccnc(N4CCC5(CCNCC5)CC4)c3)n2n1 [II-161, 3-(2-(3,9-Diazaspiro[5.5]undecan-3-yl)pyridin-4-yl)-6-(difluoromethyl)imidazo[1,2-b]pyridazine]	10 to 1000	> 5000

Structure (SMILES)	Ki [1] [nM]	IC50 [2] [nM]
OCC1CCCN(c2cc(-c3cnc4ccc(C(F)F)nn34)ccn2)C1 (stereo not shown) [II-162, (1-(4-(6-(Difluoromethyl)imidazo[1,2-b]pyridazin-3-yl)pyridin-2-yl)piperidin-3-yl)methanol]	10 to 1000	500 to 5000
CC(=O)N1CCCN(c2cc(-c3cnc4ccc(C(F)F)nn34)ccn2)CC1 [II-163, 1-(4-(4-(6-(Difluoromethyl)imidazo[1,2-b]pyridazin-3-yl)pyridin-2-yl)-1,4-diazepan-1-yl)ethanone]	10 to 1000	500 to 5000
O=C1CCN(c2cc(-c3cnc4ccc(C(F)F)nn34)ccn2)CCN1 [II-164, 1-(4-(6-(Difluoromethyl)imidazo[1,2-b]pyridazin-3-yl)pyridin-2-yl)-1,4-diazepan-5-one]	10 to 1000	500 to 5000
O=C1CCC2CN(c3cc(-c4cnc5ccc(C(F)F)nn45)ccn3)CCN12 (stereo not shown) [II-167, 2-(4-(6-(Difluoromethyl)imidazo[1,2-b]pyridazin-3-yl)pyridin-2-yl)hexahydropyrrolo[1,2-a]pyrazin-6(2H)-one]	10 to 1000	> 5000
OCCC1CCN(c2cc(-c3cnc4ccc(C(F)F)nn34)ccn2)CC1 [II-168, 2-(1-(4-(6-(Difluoromethyl)imidazo[1,2-b]pyridazin-3-yl)pyridin-2-yl)piperidin-4-yl)ethanol]	10 to 1000	500 to 5000
OC[C@@H]1CN(c2cc(-c3cnc4ccc(C(F)F)nn34)ccn2)CCN1 [II-169, (S)-(4-(4-(6-(Difluoromethyl)imidazo[1,2-b]pyridazin-3-yl)pyridin-2-yl)piperazin-2-yl)methanol]	10 to 1000	> 5000
COCC(=O)N1CCN(c2cc(-c3cnc4ccc(C(F)F)nn34)ccn2)CC1 [II-170, 1-(4-(4-(6-(Difluoromethyl)imidazo[12-b]pyridazin-3-yl)pyridin-2-yl)piperazin-1-yl)-2-methoxyethanone]	10 to 1000	500 to 5000
CC(=O)N1CCN(c2cncc(-c3cnc4ccc(C(F)F)nn34)c2)CC1 [II-171, 1-(4-(5-(6-(Difluoromethyl)imidazo[12-b]pyridazin-3-yl)pyridin-3-yl)piperazin-1-yl)ethanone]	10 to 1000	500 to 5000
O=C1NCC2CN(c3cc(-c4cnc5ccc(C(F)F)nn45)ccn3)CCN12 (stereo not shown) [II-172, 7-(4-(6-(Difluoromethyl)imidazo[1,2-b]pyridazin-3-yl)pyridin-2-yl)hexahydroimidazo[1,5-a]pyrazin-3(2H)-one]	10 to 1000	500 to 5000
O=C1NCC2CN(c3cc(-c4cnc5ccc(C(F)F)nn45)ccn3)CCN12 (stereo not shown) [II-173, 7-(4-(6-(Difluoromethyl)imidazo[1,2-b]pyridazin-3-yl)pyridin-2-yl)hexahydroimidazo[1,5-a]pyrazin-3(2H)-one]	10 to 1000	500 to 5000
FC(F)c1ccc2ncc(-c3ccnc(N4CCn5cnnc5C4)c3)n2n1 [II-174, 7-(4-(6-(Difluoromethyl)imidazo[1,2-b]pyridazin-3-yl)pyridin-2-yl)-5,6,7,8-tetrahydro-[1,2,4]triazolo[4,3-a]pyrazine]	10 to 1000	> 5000
O=C1NCC2CN(c3cc(-c4cnc5ccc(C(F)F)nn45)ccn3)CCN12 (stereo not shown) [II-175, 7-(4-(6-(Difluoromethyl)imidazo[1,2-b]pyridazin-3-yl)pyridin-2-yl)hexahydroimidazo[1,5-a]pyrazin-3(2H)-one]	10 to 1000	500 to 5000
CC(=O)N1CCN(c2cc(-c3cnc4ccc(C(F)F)nn34)ccn2)CC1 [II-176, 1-(4-(4-(6-(Difluoromethyl)imidazo[1,2-b]pyridazin-3-yl)pyridin-2-yl)piperazin-1-yl)ethanone]	10 to 1000	500 to 5000
CC(NS(C)(=O)=O)C1CN(c2cc(-c3cnc4ccc(C(F)F)nn34)ncn2)CCO1 (stereo not shown) [II-177, N-(1-(4-(6-(6-(Difluoromethyl)imidazo[1,2-b]pyridazin-3-yl)pyrimidin-4-yl)morpholin-2-yl)ethyl)methanesulfonamide]	< 10	< 500
O=C(NCCO)N1CCCC(c2cc(-c3cnc4ccc(C(F)F)nn34)ncn2)C1 (stereo not shown) [II-178, 3-(6-(6-(difluoromethyl)imidazo[1,2-b]pyridazin-3-yl)pyrimidin-4-yl)-N-(2-hydroxyethyl)piperidine-1-carboxamide]	10 to 1000	500 to 5000
CNc1ccc2ncc(-c3ccnc(N4CCCC(CNS(C)(=O)=O)C4)c3)n2n1 (stereo not shown) [II-179, N-((1-(4-(6-(Methylamino)imidazo[1,2-b]pyridazin-3-yl)pyridin-2-yl)piperidin-3-yl)methyl)methanesulfonamide]	10 to 1000	500 to 5000
